The values that follow come from publication PMC9977398, “Next-generation membrane-active glycopeptide antibiotics that also inhibit bacterial cell division” (Chemical Science, 2023).

SMILES strings stand for the structures.

One data set deals with persister cells of MRSA. The experiment in a line: Bactericidal activity against persister cells. Format: cell-based, S. aureus. As to the method:
Persister cells are a subpopulation of bacterial cultures that are refractory to antibiotic treatment.[28] […] This activity was more rapid than that observed against stationary phase cells. […]
from 10 μg/mL. The bacteria with compounds and untreated control were incubated for 18 h at 37 ̊C under shaking and OD600 was measured.
Microscopy of ΔamiAC MG1655 E. coli
ΔamiAC MG1655 was cultured overnight in LB media at 37 ̊C. Cells were then inoculated in LB media at 1:100 dilution ratio and made to grow till O.D600 0.1. The cells were then treated with 4 μg/mL concentration of vancomycin and VanQAmC10 or left untreated for 2 h. 6 μl of sample was immobilized on 1% agarose pad and microscopy was performed as described above. The experiments were performed three times independently and the images are representative of results from three independent experiments. […]
MRSA ATCC 33591 was grown to mid-log phase at 37 °C. […] The viable bacteria were then counted after 48 h incubation at 37 °C. […]
Antagonization of antibacterial activity of AAV-qC10 was determined by addition of 500 μM N,N՛-diacetyl–L-Lys–D-Ala–D-Ala or 100 μg/mL of lipoteichoic acid to serial dilutions of the test compound. The MIC was then determined against MRSA by measuring the OD600 18-24 […]
Vancomycin was chosen as control antibiotic for MRSA. The initial MIC values of VanQAmC10, vancomycin were determined against the respective bacteria. […]

The test system of the next data set is B. subtilis. As to the kind of experiment: Membrane permeabilization assay, propidium iodide uptake. The data set is classed as cell-based. As to conditions: exponentially growing B. subtilis, 10 μM, PI uptake. As to the method:
The kinetics of permeabilization of membranes of MRSA and B. subtilis by the compounds was measured by the uptake of propidium iodide (PI). […] When the membrane integrity is compromised, it enters the cell and fluoresces upon binding to the DNA. Both VanQbiph (4) and VanQAmC10 (8) permeabilized the membrane in a concentration-dependent manner (Fig. S2 ^†). […] They caused gradual permeabilization against the stationary phase cells of MRSA as well (Fig. 2F). The extent of permeabilization was higher for VanQAmC10 (8) than VanQbiph (4) against both the log-phase and stationary-phase bacteria similar to that observed during depolarisation.
50 μL of serially diluted compound was added into 96 well microtiter plates. Freshly drawn, heparanized human blood was centrifuged down to obtain the erythrocytes and re-suspended to 5 vol % in PBS (pH 7.4). […] 100 μL of the supernatant from each well were transferred into fresh microtiter plates, and A540 was measured.
% haemolysis = (A - A0)/(Atotal -A0) × 100, where A is the absorbance of the test well, A 0 the absorbance of the negative controls (without compound), and A total the absorbance of 100 % hemolysis wells (with Triton X -100), all at 540 nm. […]
2 h post incubation with dye, the absorbance was measured at 570 nm using 600 nm as […]
The bactericidal activity of the compounds was evaluated with the time kill kinetics assay. […]

On to `CCCCCCCCCCNC(=O)C[N+](C)(C)CCCNC(=O)C1NC(=O)C2NC(=O)C(NC(=O)C3NC(=O)C(CC(N)=O)NC(=O)C(NC(=O)C(CC(C)C)NC)C(O)c4ccc(c(Cl)c4)Oc4cc3cc(c4OC3OC(CO)C(O)C(O)C3OC3CC(C)(N)C(O)C(C)O3)Oc3ccc(cc3Cl)C2O)c2ccc(O)c(c2)-c2c(O)cc(O)cc21` (centres unmarked) [VanQAmC10 (8)], for which the “activity against persister cells” value in the data set on persister cells of MRSA is listed as “concentration-dependent bactericidal activity”. In the data set on B. subtilis, the “time to membrane permeabilization” value is at most 4 min.
